Data: patent US8192962B2, “Processes for detecting toxic substances” (Daikin Industries, Ltd., priority 2001, dated 2012)

Tested on: Energy system protein genes
Assay: DNA chip mRNA expression in yeast, energy system protein genes (Table 4)
Format: cell-based, Saccharomyces cerevisiae S288C
In short: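 Whole-genome yeast DNA chip hybridization (65° C., >12 h) of Cy-labeled cDNA from S288C cells exposed 2 h at 25° C. to a sub-lethal toxicant dose in YPD; value is intensity relative to chemical-free control.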

COc1cc(CNC(=O)CCCCC=CC(C)C)ccc1O [(12), 8-methyl-N-vanillyl-6-nonenamide]
The level of expressed mRNA in the presence of chemical substance/The level of expressed mRNA in the absence of chemical substance (yeast gene YAL060W): 0.8
The level of expressed mRNA in the presence of chemical substance/The level of expressed mRNA in the absence of chemical substance (yeast gene YBL058W, cells incubated two hours with the chemical substance): 0.8
The level of expressed mRNA in the presence of chemical substance/The level of expressed mRNA in the absence of chemical substance (yeast gene YBL099W, cells incubated two hours with the chemical substance): 1.0
The level of expressed mRNA in the presence of chemical substance/The level of expressed mRNA in the absence of chemical substance (yeast gene YBR001C, cells incubated two hours with the chemical substance): 1.0
The level of expressed mRNA in the presence of chemical substance/The level of expressed mRNA in the absence of chemical substance (yeast gene YBR185C, cells incubated two hours with the chemical substance): 0.7
The level of expressed mRNA in the presence of chemical substance/The level of expressed mRNA in the absence of chemical substance (yeast gene YBR221C, cells incubated two hours with the chemical substance): 1.3
The level of expressed mRNA in the presence of chemical substance/The level of expressed mRNA in the absence of chemical substance (yeast gene YCL040W): 2.3
The level of expressed mRNA in the presence of chemical substance/The level of expressed mRNA in the absence of chemical substance (yeast gene YCR005C): 0.5
The level of expressed mRNA in the presence of chemical substance/The level of expressed mRNA in the absence of chemical substance (yeast gene YCR012W): 1.2
The level of expressed mRNA in the presence of chemical substance/The level of expressed mRNA in the absence of chemical substance (yeast gene YCR046C, cells incubated two hours with the chemical substance): 1.1
The level of expressed mRNA in the presence of chemical substance/The level of expressed mRNA in the absence of chemical substance (yeast gene YCR105W, cells incubated two hours with the chemical substance): 0.9
The level of expressed mRNA in the presence of chemical substance/The level of expressed mRNA in the absence of chemical substance (yeast gene YDL021W): 2.4
The level of expressed mRNA in the presence of chemical substance/The level of expressed mRNA in the absence of chemical substance (yeast gene YDL067C, cells incubated two hours with the chemical substance): 1.0
The level of expressed mRNA in the presence of chemical substance/The level of expressed mRNA in the absence of chemical substance (yeast gene YDL078C, cells incubated two hours with the chemical substance): 0.8
The level of expressed mRNA in the presence of chemical substance/The level of expressed mRNA in the absence of chemical substance (yeast gene YDL107W, cells incubated two hours with the chemical substance): 1.0
The level of expressed mRNA in the presence of chemical substance/The level of expressed mRNA in the absence of chemical substance (yeast gene YDL174C): 2.8
The level of expressed mRNA in the presence of chemical substance/The level of expressed mRNA in the absence of chemical substance (yeast gene YDL181W, cells incubated two hours with the chemical substance): 0.9
The level of expressed mRNA in the presence of chemical substance/The level of expressed mRNA in the absence of chemical substance (yeast gene YDR001C): 1.1
The level of expressed mRNA in the presence of chemical substance/The level of expressed mRNA in the absence of chemical substance (yeast gene YDR050C, cells incubated two hours with the chemical substance): 1.4
The level of expressed mRNA in the presence of chemical substance/The level of expressed mRNA in the absence of chemical substance (yeast gene YDR079W, cells incubated two hours with the chemical substance): 1.1
The level of expressed mRNA in the presence of chemical substance/The level of expressed mRNA in the absence of chemical substance (yeast gene YDR178W, cells incubated two hours with the chemical substance): 1.3
The level of expressed mRNA in the presence of chemical substance/The level of expressed mRNA in the absence of chemical substance (yeast gene YDR231C): 1.1
The level of expressed mRNA in the presence of chemical substance/The level of expressed mRNA in the absence of chemical substance (yeast gene YDR298C, cells incubated two hours with the chemical substance): 1.1
The level of expressed mRNA in the presence of chemical substance/The level of expressed mRNA in the absence of chemical substance (yeast gene YDR377W, cells incubated two hours with the chemical substance): 0.9
The level of expressed mRNA in the presence of chemical substance/The level of expressed mRNA in the absence of chemical substance (yeast gene YDR529C, cells incubated two hours with the chemical substance): 0.6
The level of expressed mRNA in the presence of chemical substance/The level of expressed mRNA in the absence of chemical substance (yeast gene YEL024W, cells incubated two hours with the chemical substance): 0.8
The level of expressed mRNA in the presence of chemical substance/The level of expressed mRNA in the absence of chemical substance (yeast gene YEL039C, cells incubated two hours with the chemical substance): 0.6
The level of expressed mRNA in the presence of chemical substance/The level of expressed mRNA in the absence of chemical substance (yeast gene YER178W): 1.3
The level of expressed mRNA in the presence of chemical substance/The level of expressed mRNA in the absence of chemical substance (yeast gene YFL057C): 1.0
The level of expressed mRNA in the presence of chemical substance/The level of expressed mRNA in the absence of chemical substance (yeast gene YFR053C): 1.7
The level of expressed mRNA in the presence of chemical substance/The level of expressed mRNA in the absence of chemical substance (yeast gene YGL018C, cells incubated two hours with the chemical substance): 1.0
The level of expressed mRNA in the presence of chemical substance/The level of expressed mRNA in the absence of chemical substance (yeast gene YGL062W): 1.6
The level of expressed mRNA in the presence of chemical substance/The level of expressed mRNA in the absence of chemical substance (yeast gene YGL187C, cells incubated two hours with the chemical substance): 0.8
The level of expressed mRNA in the presence of chemical substance/The level of expressed mRNA in the absence of chemical substance (yeast gene YGL191W, cells incubated two hours with the chemical substance): 0.9
The level of expressed mRNA in the presence of chemical substance/The level of expressed mRNA in the absence of chemical substance (yeast gene YGL205W, cells incubated two hours with the chemical substance): 1.1
The level of expressed mRNA in the presence of chemical substance/The level of expressed mRNA in the absence of chemical substance (yeast gene YGL256W, cells incubated two hours with the chemical substance): 0.9
The level of expressed mRNA in the presence of chemical substance/The level of expressed mRNA in the absence of chemical substance (yeast gene YGR043C): 3.3
The level of expressed mRNA in the presence of chemical substance/The level of expressed mRNA in the absence of chemical substance (yeast gene YGR062C, cells incubated two hours with the chemical substance, 25° C., YPD medium): 1.0
The level of expressed mRNA in the presence of chemical substance/The level of expressed mRNA in the absence of chemical substance (yeast gene YGR087C, cells incubated two hours with the chemical substance): 1.2
The level of expressed mRNA in the presence of chemical substance/The level of expressed mRNA in the absence of chemical substance (yeast gene YGR174C, cells incubated two hours with the chemical substance): 0.9
The level of expressed mRNA in the presence of chemical substance/The level of expressed mRNA in the absence of chemical substance (yeast gene YGR192C): 2.2
The level of expressed mRNA in the presence of chemical substance/The level of expressed mRNA in the absence of chemical substance (yeast gene YGR244C): 1.9
The level of expressed mRNA in the presence of chemical substance/The level of expressed mRNA in the absence of chemical substance (yeast gene YGR254W): 1.7
The level of expressed mRNA in the presence of chemical substance/The level of expressed mRNA in the absence of chemical substance (yeast gene YHR179W): 2.2
The level of expressed mRNA in the presence of chemical substance/The level of expressed mRNA in the absence of chemical substance (yeast gene YIL160C): 1.0
The level of expressed mRNA in the presence of chemical substance/The level of expressed mRNA in the absence of chemical substance (yeast gene YIR031C, cells incubated two hours with the chemical substance): 0.8
The level of expressed mRNA in the presence of chemical substance/The level of expressed mRNA in the absence of chemical substance (yeast gene YJL052W): 2.4
The level of expressed mRNA in the presence of chemical substance/The level of expressed mRNA in the absence of chemical substance (yeast gene YJL121C, cells incubated two hours with the chemical substance): 0.6
The level of expressed mRNA in the presence of chemical substance/The level of expressed mRNA in the absence of chemical substance (yeast gene YJL166W, cells incubated two hours with the chemical substance): 0.7
The level of expressed mRNA in the presence of chemical substance/The level of expressed mRNA in the absence of chemical substance (yeast gene YJL216C, cells incubated two hours with the chemical substance): 1.0
The level of expressed mRNA in the presence of chemical substance/The level of expressed mRNA in the absence of chemical substance (yeast gene YJR009C): 1.5
